Consider two compounds from patent US20230270711A1, “Improved Anti-Hangover Composition, Its Preparation and Uses” (Zobrius Pharma AS, priority 2019, published 2023).

Experiment [1] concerns the target LADH. To be noted: read-out: Ki, inhibition of LADH; cited from earlier work.
For experiment [2], the system named is alcohol metabolism. Kind of experiment: Clinical Study Protocol: alcohol metabolism from BAC (CA 2000 Digital Alcohol Detector), Examples 1 and 2. The format is in vivo, human. To be noted: in the 500 ml Composition A (90 g fructose). The procedure:
Clinical Study Protocol—The studies presented in Examples 1 and 2 were carried out with 10 individuals (6 males and 4 females, aged 24-57 years).
In the control study (using water alone as the after-alcohol drink), the test persons were given 8 oz. (ca.2.4 dl) of vodka mixed with 6 dl Sprite® (The Coca Cola Company). The alcohol was consumed within one hour. At a given time, 30-60 minutes after alcohol consumption, each person drank a given volume of water (control composition). The alcohol level was then measured as described below.
One week later, a second study was carried out, wherein the same test persons were given the same amounts of vodka and Sprite®, respectively. At the given time after alcohol consumption, each test person drank the given volume of a test composition. The alcohol level was then measured as described just below.
Blood alcohol concentration (BAC) was measured, using a CA 2000 Digital Alcohol Detector, once every 30 minutes in each experiment. Each value is an average of four parallel measurements. Evaluation of effect against hangover was graded on a scale from 1-10 (where 10 represents the greatest effect).
The study protocol was carried out as described above, wherein the test composition comprised Comparative Composition A (defined below); the given time was 45 minutes; and the given volume was 500 ml. […]

As a reminder, the Ki is the dissociation constant of the complex between target and ligand, obtained from inhibition or displacement. Take `NC(=O)C1=CN([C@@H]2O[C@H](COP(=O)(O)OP(=O)(O)OC[C@H]3O[C@@H](n4cnc5c(N)ncnc54)[C@H](O)[C@@H]3O)[C@@H](O)[C@H]2O)C=CC1` [NADH]: the Ki in experiment [1] was 56 µM.

As for `O=C(CO)[C@@H](O)[C@H](O)[C@H](O)CO` [fructose], the “Contribution of fructose to the acceleration of alcohol degradation” value in experiment [2] is reported as 20-25%.
